Results as given in patent publication US20200355685A1, “REAGENT SET FOR DETECTING INTERACTIONS BETWEEN BIOMOLECULES AND THEIR REGULATORY FACTORS, AND APPLICATIONS” (TSINGHUA UNIVERSITY, priority 2017, published 2020).
No end group written: not given here. Me3 = trimethyl (trimethylated lysine)

Key:
[1] = molecular target: T1, interaction between P53 and MDM2 (Homo sapiens, UniProt Q00987); experiment: Intracellular detection of the P53-MDM2 interaction in HEK293 cells co-transfected with GFP-NUPN-P53 and mCherry-MDM2; type: cell-based; settings: system 8, final concentration of 5 μM, same field before and after treatment
Method: Each recombinant vector obtained in step I was transfected (or co-transfected) into HEK293 cells (adherent culture) according to the following combinations, and the transfection reagent Hifectin I (Beijing Dinoao Biotechnology Co., Ltd.) was used, and the operation was performed according to the instruction of the reagent. The combinations and the amount of the transfection vector(s) per 105 HEK293 cells were as follows:
combination 1: pcDNA3.1-GFP-NUPN, the transfection dosage of the vector was 1 μg; combination 2: pcDNA3.1-mCherry, the transfection dosage of the vector was 1 μg; combination 3: pcDNA3.1-GFP-NUPN+pcDNA3.1-mCherry, the transfection dosages of these two vectors were 0.5 μg and 0.5 μg, respectively; combination 4: pcDNA3.1-GFP-NUPN-P53, the transfection dosage of the vector was 1 μg; combination 5: pcDNA3.1-GFP-NUPN-P53+pcDNA3.1-mCherry, the transfection dosages of these two vectors were 0.5 μg and 0.5 μg, respectively; combination 6: pcDNA3.1-mCherry-MDM2, the transfection dosage of the vector was 1 μg; combination 7: pcDNA3.1-GFP-NUPN+pcDNA3.1-mCherry-MDM2, the transfection dosages of these two vectors were 0.5 μg and 0.5 μg, respectively; combination 8: pcDNA3.1-GFP-NUPN-P53+pcDNA3.1-mCherry-MDM2, the transfection dosages of these two vectors were 0.5 μg and 0.5 μg, respectively. […]

CD = molecular target: T2, CD (Homo sapiens, UniProt P83916); experiment: Phase transition droplet detection of the interaction between H3K9me3 and CD (SGS-CD, His-SGP, Hfq-mCherry-PDZ); type: binding; settings: systems 15-20 with Hfq-mCherry-PDZ; mixture completely composed of the named peptide; all components 1 μM
T2 construct: His-SGS (His-tag, SmF, GFP, SH3 and linking regions); made in house; host or cells: E. coli BL21 (DE3)
Method: The concentrations of His-SGS, SGS-CD, His-SGP, Hfq-mCherry-PDZ, mCherry-PDZ and the mixture of H3K9me3-KKETPV and H3K9-KKETPV in the corresponding systems were all 1 μM:
In Table 2, “+” represents that the substance is contained; “−” represents that the substance is not contained; “*” represents a mixture of H3K9me3-KKETPV and H3K9-KKETPV. In the systems 9-14, the molar percentages of H3K9me3-KKETPV in the mixture of H3K9me3-KKETPV and H3K9-KKETPV were 0, 0.2, 0.4, 0.6, 0.8 and 1.0, respectively, and in the systems 15-20, the molar percentages of H3K9me3-KKETPV in the mixture of H3K9me3-KKETPV and H3K9-KKETPV were 0, 0.2, 0.4, 0.6, 0.8 and 1.0, respectively.
(§1) Each of the above systems was subjected to a static incubation at 4° C. until the phase transition droplets in the systems in which phase transitions occurred completely settled to the bottom of the well plate, and the images were collected using a confocal high-content imaging microscope.

[2] = molecular target: T1, interaction between P53 and MDM2; experiment: Phase transition droplet detection of the effect of a regulatory factor on the P53-MDM2 interaction (SGS-P53, mCherry-MDM2, His-SGP); type: binding; parameters: His-tag (N); made in house; host or cells: E. coli BL21 (DE3); settings: MI-773 1.25-25 μM, ampicillin 25 μM; SGS-P53, mCherry-MDM2 and His-SGP all 0.5 μM; static incubation at 4° C.
Method: the solutions of SGS-P53, mCherry-MDM2, His-SGP and ampicillin were mixed, and then 20 μL of the resulting mixture was transferred to a 384-microwell plate to obtain an ampicillin control system and the concentrations of SGS-P53, mCherry-MDM2 and His-SGP were all 0.5 μM in the ampicillin control system, and the concentration of ampicillin was 25 μM;
According to the above system, the solutions of SGS-P53, mCherry-MDM2, His-SGP and MI-773 were mixed, and then 20 μL of the resulting mixture was transferred into a 384-microwell plate. Different concentrations of MI-773 were set to obtain experimental systems with different concentrations of MI-773. The concentration of MI-773 in each experimental system was 0 (i.e., KMEI buffer), 1.25, 2.5, 5, 10, 15, and 25 μM, respectively, one concentration per well, and in each experimental system, the concentrations of SGS-P53, mCherry-MDM2 and His-SGP were all 0.5 μM.
as §1, with “to” for “to a”, “image of each system was” for “images were”, “microscope and the intensity of the red fluorescence signal in the phase transition droplets in each well plate was counted and analyzed.” for “microscope.”

[3] = molecular target: T3, interaction between FKBP and FRB (Homo sapiens, UniProt P42345+P62942); experiment: Phase transition droplet detection of the effect of a regulatory factor on the FKBP-FRB interaction (SGS-FKBP, mCherry-FRB, His-SGP); type: binding; settings: rapamycin 0.2-1.0 μM, ampicillin control, mCherry-FRB and His-SGP all 1 μM, static incubation at 4° C.
T3 construct: His-SGS (His-tag, SmF, GFP, SH3 and linking regions); His-tag (N); made in house; host or cells: E. coli BL21 (DE3)
T3 sequence (P62942 with tags, fused parts or gaps): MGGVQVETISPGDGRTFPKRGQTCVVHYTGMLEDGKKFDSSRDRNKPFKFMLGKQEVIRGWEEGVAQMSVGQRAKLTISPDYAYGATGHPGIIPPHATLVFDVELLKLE
T3 sequence (P42345 with tags, fused parts or gaps): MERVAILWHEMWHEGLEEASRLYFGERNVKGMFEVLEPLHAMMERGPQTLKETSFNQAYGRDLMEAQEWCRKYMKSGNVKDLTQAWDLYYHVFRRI
Method: Different concentrations of rapamycin were set to obtain experimental systems with different concentrations of rapamycin.
Each of the above systems was subjected to static incubation at 4° C. until the phase transition droplets in the systems in which phase transitions occurred completely settled to the bottom of the well plate, and the image of each system was collected using a confocal high-content imaging microscope and the intensity of the red fluorescence signal in the phase transition droplets in each well plate was counted and analyzed.

T1 sequence (Q00987 with tags, fused parts or gaps): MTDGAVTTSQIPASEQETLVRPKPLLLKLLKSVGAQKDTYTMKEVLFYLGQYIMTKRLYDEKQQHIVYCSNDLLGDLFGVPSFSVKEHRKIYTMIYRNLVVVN
T2 sequence (P83916 19-83): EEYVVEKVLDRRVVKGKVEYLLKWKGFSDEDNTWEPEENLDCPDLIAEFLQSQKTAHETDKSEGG

Compound | effect on the interaction between P53 and MDM2 in cells (accumulation of red fluorescent signal in the second phase) [1] | effect on the interaction between P53 and MDM2 (red fluorescence signal in the phase transition droplets) [2] | effect on the interaction between FRB and FKBP (red fluorescence signal in the phase transition droplets) [3] | red fluorescence signal (mCherry) in the phase transition droplets (CD)
CN[C@@H](C)C(=O)N[C@H](C(=O)N1CCC[C@H]1C(=O)Nc1snnc1-c1ccccc1)C1CCCCC1 [GDC0152] | does not affect | – | – | –
H3K9-KKETPV: unmethylated peptide as shown in SEQ ID NO: 23, used as a control (ARTKQTARGGSGGSGGSWGGSKKETPVAV) | – | – | – | no significant red fluorescence
ARTK (Me) 3QTARGGSGGSGGSWGGSKKETPVAV (ARTK(Me3)QTARGGSGGSGGSWGGSKKETPVAV) [H3K9me3-KKETPV] | – | – | – | reached the highest

The next lines start with results.

effect on the interaction between P53 and MDM2 in cells (accumulation of red fluorescent signal in the second phase) [1] | effect on the interaction between P53 and MDM2 (red fluorescence signal in the phase transition droplets) [2] | effect on the interaction between FRB and FKBP (red fluorescence signal in the phase transition droplets) [3] | Compound | red fluorescence signal (mCherry) in the phase transition droplets (CD)
significantly inhibit | significantly inhibit | – | CC(C)(C)C[C@@H]1N[C@@H](C(=O)N[C@H]2CC[C@H](O)CC2)[C@H](c2cccc(Cl)c2F)[C@]12C(=O)Nc1cc(Cl)ccc12 [MI-773] | –
– | does not affect | does not affect | CC1(C)S[C@@H]2[C@H](NC(=O)[C@H](N)c3ccccc3)C(=O)N2[C@H]1C(=O)O [ampicillin] | –
